Source: PubChem BioAssay (NCI)
Where “and” joins values, the source holds several entries; their conditions need not be identical. Equal values may be shown once.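 96-well plates; 48 h exposure; 5 concentrations. Endpoints by linear interpolation between flanking doses. Not reached: highest tested concentration assigned. GI50 is the concentration that inhibits growth by half. TGI: concentration producing complete growth inhibition.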

Legend:
Experiment in all cases: growth of human tumour cells (NCI), 48 h
CAKI-1 renal = test system: CAKI-1 renal
DLD-1 colon = test system: DLD-1 colon
DMS 114 small cell lung = test system: DMS 114 small cell lung
DMS 273 small cell lung = test system: DMS 273 small cell lung
HOP-62 NSCLC = test system: HOP-62 NSCLC
KM20L2 colon = test system: KM20L2 colon
MCF7 breast = test system: MCF7 breast
MDA-MB-435 = test system: MDA-MB-435
RPMI-8226 leukemia = test system: RPMI-8226 leukemia
SNB-78 CNS = test system: SNB-78 CNS
TK-10 renal = test system: TK-10 renal
LXFL 529 NSCLC = test system: LXFL 529 NSCLC
M19-MEL melanoma = test system: M19-MEL melanoma

Structure (SMILES)	TGI (CAKI-1 renal)	TGI (DLD-1 colon)	TGI (DMS 114 small cell lung)	TGI (DMS 273 small cell lung)	TGI (HOP-62 NSCLC)	TGI (KM20L2 colon)	TGI (MCF7 breast)	TGI (MDA-MB-435)	TGI (RPMI-8226 leukemia)	TGI (SNB-78 CNS)	TGI (TK-10 renal)	TGI (LXFL 529 NSCLC)	TGI (M19-MEL melanoma)	GI50 (CAKI-1 renal)	GI50 (HOP-62 NSCLC)	GI50 (MCF7 breast)	GI50 (MDA-MB-435)	GI50 (RPMI-8226 leukemia)	GI50 (TK-10 renal)
COC1=C(NC(C)=O)C(=O)c2nc3n(c2C1=O)CCC3	32.8 µM	29.3 µM	25 µM	34.6 µM	39.9 µM	> 100 µM	47.1 µM	9.97 µM	> 79.2 µM	28.9 µM	> 66.6 µM								
CCCCc1c2c(nc3c1CCc1cc(C=O)c(N)nc1-3)/C(=C/c1ccccc1)CCC2	> 100 µM		> 100 µM	> 100 µM	> 100 µM	> 100 µM			> 100 µM	> 100 µM	> 100 µM	> 100 µM	> 100 µM						
O=C(O)CSc1ccn(Cc2ccccc2)c1	> 100 µM				> 100 µM		> 100 µM	> 100 µM	> 100 µM		> 100 µM								
O=C(NCCc1ccccc1)C(c1csc2ccccc12)N(C(=O)CCl)c1ccc(-c2cnco2)cc1 (configuration not stated)	0.487 µM				1.07 µM		3.26 µM	3.18 µM	0.474 µM		3.21 µM			0.096 µM	0.347 µM	1.43 µM	1.54 µM	0.171 µM	1.75 µM
COc1ccc(C2CC(c3cccc(Nc4ccnc5cc(Cl)ccc45)c3)=NN2c2ccccc2)cc1 (configuration not stated)	> 100 µM				21.3 µM		27.4 µM	2.92 µM	22.8 µM		97.2 µM			0.681 µM	0.949 µM	1.52 µM	0.219 µM	1.27 µM	3.76 µM
COC(=O)C1=C(O)C(C(=O)OC)[C@@]2(O)[C@@H](C(=O)OC)C(c3ccc(OC(=O)C(Cc4ccccc4)NC(C)=O)cc3)C[C@@H]1[C@@H]2C(=O)OC (some centres not stated)	> 100 µM				54.3 µM		95.3 µM	50.2 µM	71.4 µM		44.1 µM			38.7 µM	22.5 µM	17 µM	23.5 µM	20.6 µM	18.5 µM
CC(=O)OCC1OC(n2c(-c3ccc(N)cc3)cc(-c3ccco3)c(C#N)c2=O)C(OC(C)=O)C(OC(C)=O)C1OC(C)=O (configuration not stated)	> 50 µM	> 50 µM	> 50 µM	> 50 µM	> 50 µM	> 50 µM				> 50 µM	> 50 µM	> 50 µM	> 50 µM						
O=C(CC1Sc2ccccc2NC1=O)Nc1ccc([N+](=O)[O-])cc1[N+](=O)[O-] (configuration not stated)		28.6 µM	27.5 µM		> 100 µM	79.5 µM			32.3 µM	51.7 µM	> 100 µM	28.7 µM	30.3 µM						
N=C(N)c1ccc(-c2ccc(-c3ccco3)o2)cc1	16.6 µM				23 µM		14.3 µM	4.03 µM	7.52 µM		15.6 µM			3.94 µM	10.4 µM	2.08 µM	1.83 µM	2.51 µM	4.33 µM
Oc1ccc(Br)cc1CN1CCN(Cc2ccc(Cl)cc2)CC1	> 100 µM				> 100 µM		94.3 µM	90.4 µM	> 100 µM		> 100 µM			22.7 µM	36.5 µM	18.4 µM	20.8 µM	14.4 µM	24.8 µM
O=C(CCCCCCCCC(=O)OCCCn1cc(C(=O)NC(=O)OCc2ccccc2)c(=O)[nH]c1=O)OCCCn1cc(C(=O)NC(=O)OCc2ccccc2)c(=O)[nH]c1=O	> 100 µM	> 100 µM		> 100 µM	> 100 µM	> 100 µM			> 100 µM	> 100 µM	> 100 µM		> 100 µM						
COc1cc(C2C3=C(COC3=O)N(CCO)c3cc4c(cc32)OCCO4)cc(OC)c1O (configuration not stated)	> 45 µM				> 50 µM		> 50 µM	1.71 µM	> 50 µM		> 50 µM			2.84 µM	2.72 µM	0.957 µM	0.331 µM	2.18 µM	6.61 µM
C[N+](C)(C)CC(=O)NC(=O)N/N=C\C(CC#N)CN(Cc1ccccc1)Cc1ccccc1 (configuration not stated)	> 100 µM	> 100 µM	> 100 µM	> 100 µM	> 100 µM	> 100 µM				> 100 µM	> 100 µM	> 100 µM	> 100 µM						
O=C(CCCCCn1c2ccccc2c2c3c(c4c5ccccc5[nH]c4c21)C(=O)N(O)C3=O)N1CCOCC1	4.81 µM				6.74 µM		> 100 µM	5.58 µM	5.43 µM		5.72 µM			2.13 µM	2.77 µM	1.41 µM	2.25 µM	1.97 µM	2.03 µM
CC(C)=CCNc1ncnc2c1ncn2C1OC(COP(=O)(O)O)C(O)C1O (configuration not stated)	> 67.7 µM				> 100 µM		> 91.3 µM	> 100 µM	> 100 µM		5.59 µM			3.6 µM	23.5 µM	1.72 µM	6.68 µM	42.8 µM	2.06 µM
COc1cc(OC)c(Oc2cccc(OC)c2OC)c(OC)c1	> 100 µM	> 100 µM	> 100 µM	> 100 µM	> 100 µM	> 100 µM				> 100 µM	> 100 µM	> 100 µM	> 100 µM						
NS(=O)(=O)OC[C@H]1O[C@@H](n2cnc3c(N[C@H]4CCc5ccccc54)ncnc32)[C@H](O)[C@@H]1O	0.181 µM				0.485 µM		> 100 µM	0.351 µM	28.1 µM		3.24 µM			0.054 µM	0.0569 µM	0.0736 µM	0.114 µM	3.36 µM	0.608 µM
O=c1cc(N2CCOCC2)oc2c(-c3ccccc3)cccc12	28.9 µM and 9.16 µM				> 100 µM		> 57 µM and 16.1 µM	31.1 µM and 37.2 µM	> 100 µM and 18.3 µM		40.3 µM and > 100 µM				5.41 µM		4.23 µM	5.1 µM	4.39 µM
COc1ncn(C2C=C(CO)C(O)C2O)c(=O)n1 (configuration not stated)		> 100 µM	> 100 µM	> 100 µM	> 100 µM	> 100 µM			> 100 µM	> 100 µM	> 100 µM	> 100 µM							
